These results are taken from the OligoGym collection.

Values joined by “and” are separate entries in the source; they are usually repeats but may differ in a detail not shown here. Identical values can stand only once. After the bases stand the sugars from the 5' end (letter, count) and the backbone: PS all phosphorothioate, else s phosphorothioate and o phosphodiester by linkage. Methylation of C is not given here. e = 2'-O-(2-methoxyethyl) (MOE); k = constrained ethyl (cEt); d = 2'-deoxy (DNA)

The first series addresses IRF4. Particulars: ASO, MM.1R, 1 µM.
As to “CTGCTTGAGGTTTTCC (sugars kkddddddddddkeke, PS)”, the target mRNA inhibition was 44%.
“CTGCTTGAGGTTTTCC (sugars kkkddddddddkekek, PS)”: the target mRNA inhibition is 26%.
Take CTGGATATGTGGTGTT (sugars k3 d10 k3, PS): the target mRNA inhibition was found to be 30%.
As for CTGTATGGAACCCCAA (sugars k3 d10 k3, PS), the target mRNA inhibition was 3%.
Turning to “CTGTTACCGATGCTTC (sugars kkddddddddddkeke, PS)”, the target mRNA inhibition is 43% and 37%.
As to “CTGTTACCGATGCTTC (sugars kkdddddddddkekek, PS)”, the target mRNA inhibition is 52% and 44%.
Same read-out and setting: the value for CTTAGAATGAGAGGTG (sugars k3 d10 k3, PS) was 1%; that for “CTTGATAAAGGCTGAA (sugars e1 k2 d9 k2 e2, PS)” was 17%; that for “CTTGATAAAGGCTGAA (sugars kkddddddddddkeke, PS)” was 4%.
Take “CTTGATAAAGGCTGAA (sugars kkdddddddddkdkdk, PS)”: the target mRNA inhibition amounted to 1%.
On the same count and under the same terms, the figure for “CTTGATAAAGGCTGAA (sugars kkdddddddddkekek, PS)” is 12%; for “CTTGATAAAGGCTGAA (sugars kkkdddddddddkeke, PS)” it is 24%; for CTTGGCTGTGGGATGC (sugars k3 d10 k3, PS) it is 21%.
Turning to CTTTATAGTAGGTAAG (sugars k3 d10 k3, PS), the target mRNA inhibition is -1%.
The same measure, in the same setting: the value for CTTTCCCATGGTTACT (sugars k3 d10 k3, PS) was 8%.
Same read-out and setting: the figure for CTTTGAGGCTGCGAAG (sugars k3 d10 k3, PS) is 2%.

The same series, now with this note: ASO, SK-MEL-28, 4 µM.
CTGGAGGTCGAACCTC (sugars k3 d10 k3, PS): the target mRNA inhibition was 2%.
On to CTGGGCCTTGCCAGTG (sugars k3 d10 k3, PS), for which the target mRNA inhibition is -14%.
On to CTGTAAGGGCTGCTCA (sugars k3 d10 k3, PS), for which the target mRNA inhibition was 56%.
Still for that read-out and setting: the value for CTGTATAGTTCTCAAC (sugars k3 d10 k3, PS) was 52%; that for CTTAAGCTAAACTCCT (sugars k3 d10 k3, PS) was 27%; that for CTTAGGAACGAAGAGC (sugars k3 d10 k3, PS) was 7%.
Still for that read-out and setting: the figure for CTTCACTACCTGCAGC (sugars k3 d10 k3, PS) is 22%; for CTTCATTTACTGTTAC (sugars k3 d10 k3, PS) it is 31%; for CTTCTTTATGCGAAGA (sugars k3 d10 k3, PS) it is -5%.
As to CTTGATAAAGGCTGAA (sugars k3 d10 k3, PS), the target mRNA inhibition came out at 60%.
CTTGCAGCTCTGACAA (sugars k3 d10 k3, PS): the target mRNA inhibition was 9%.
Still for that read-out and setting: the value for CTTGCCAGTGGTGGCC (sugars k3 d10 k3, PS) was 16%.
As for CTTGCCGCTGTCGATC (sugars k4 d8 k4, PS), the target mRNA inhibition amounted to 42%.
CTTGGTCAATTTTCAC (sugars k3 d10 k3, PS): the target mRNA inhibition amounted to 53%.
For the sequence CTTGTCTCCCCCAGAG (sugars k3 d10 k3, PS), the target mRNA inhibition was determined as 3%.
CTTGTCTCGCCGCAAT (sugars k3 d10 k3, PS): the target mRNA inhibition is 65% and 47%.
On the same count and under the same terms, the figure for CTTTACACAGTTCTAA (sugars k3 d10 k3, PS) is -13%.
As to CTTTAGTGTCGCCATG (sugars k3 d10 k3, PS), the target mRNA inhibition worked out at 29%.
Regarding CTTTGAAGTGCTGTGT (sugars k3 d10 k3, PS), the target mRNA inhibition came to 16%.
Same read-out and setting: the value for CTTTGATGAGCAGATC (sugars k3 d10 k3, PS) was 12%.
